Consider 52 sequences from the supplement of paper PMC11208160.

The data set is described as follows: recombinant UMI read abundance after kanamycin selection (control-corrected) (log10(CPM+1)); higher = more efficient recombination; extreme values may be limits of the assay; sequences stand for … in AGTGCAGAGAAAATCGGCCAGTTTTCTCTGCCTGCAGTCCGCATGCCGTGGGACCCCTTGGGTTCTAACCTGTTGCCTAGATTTATGCAGCGGACTGCCTTTCTCCCAAAGTGATAAACCGG…AGGTTGGTTTCACT; site = the 11-nt donor. The method in brief:
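After plating on IPTG (0.07 mM) plus kanamycin, or unselected, in two replicates, recombinant UMIs were PCR-amplified across the donor–target junction and sequenced. The cells were Escherichia coli co-electroporated with a UMI-tagged donor and donor-binding-loop pair library and a target plasmid with a fixed target and T7-inducible IS621 bridge recombinase. Values are log10(CPM+1), with CPM averaged over replicates and scaled by control-derived factors.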
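Also: IS621 bridge recombinase in Escherichia coli cells against a fixed T5 target plasmid.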

As to “CCCATCTCATGGACCGGTTTTCCCGGTAATCCGTATTTGTC (site CCCATTTCTGA)”, the “recombinant UMI read abundance (log10)” value came out at 0.

As for “CCCCAAGCATGGACCGGTTTTCCCGGTAATCCGTATTTGGC (site CCCCAAGCTGC)”, the “recombinant UMI read abundance (log10)” value amounted to 0.

For the sequence “CCCCACACATGGACCGGTTTTCCCGGTAATCCGTATTTGCA (site CCCCACACTTA)”, the “recombinant UMI read abundance (log10)” value worked out at 0.0196.

In the case of “CCCCACACATGGACCGGTTTTCCCGGTAATCCGTATTTGCA (site CCCCACACTTC)”, the “recombinant UMI read abundance (log10)” value came out at 0.0185.

For “CCCCACACATGGACCGGTTTTCCCGGTAATCCGTATTTGCA (site CCCCACACTTG)”, the “recombinant UMI read abundance (log10)” value worked out at 1.88.

As to “CCCCACACATGGACCGGTTTTCCCGGTAATCCGTATTTGCA (site CCCCACACTTT)”, the “recombinant UMI read abundance (log10)” value was determined as 0.16.

Regarding “CCCCACGCATGGACCGGTTTTCCCGGTAATCCGTATTTGGC (site CCCCACGCTGC)”, the “recombinant UMI read abundance (log10)” value came to 0.767.

Take “CCCCACGCATGGACCGGTTTTCCCGGTAATCCGTATTTGTA (site CCCCACACTTA)”: the “recombinant UMI read abundance (log10)” value turned out to be 0.643.

“CCCCACGCATGGACCGGTTTTCCCGGTAATCCGTATTTGTA (site CCCCACCCTTA)”: the “recombinant UMI read abundance (log10)” value was 0.00405.

As to “CCCCACGCATGGACCGGTTTTCCCGGTAATCCGTATTTGTA (site CCCCACGCTTA)”, the “recombinant UMI read abundance (log10)” value is 0.81.

Regarding “CCCCACGCATGGACCGGTTTTCCCGGTAATCCGTATTTGTA (site CCCCACTCTTA)”, the “recombinant UMI read abundance (log10)” value came out at 0.923.

Turning to “CCCCAGCCATGGACCGGTTTTCCCGGTAATCCGTATTTGCC (site CCCAAGCCTGG)”, the “recombinant UMI read abundance (log10)” value came out at 0.

In the case of “CCCCAGCCATGGACCGGTTTTCCCGGTAATCCGTATTTGCC (site CCCCAGCCTGG)”, the “recombinant UMI read abundance (log10)” value was determined as 0.

In the case of “CCCCAGCCATGGACCGGTTTTCCCGGTAATCCGTATTTGCC (site CCCGAGCCTGG)”, the “recombinant UMI read abundance (log10)” value was 0.

Regarding “CCCCAGCCATGGACCGGTTTTCCCGGTAATCCGTATTTGCC (site CCCTAGCCTGG)”, the “recombinant UMI read abundance (log10)” value stood at 0.

For the sequence “CCCCGTCCATGGACCGGTTTTCCCGGTAATCCGTATTTGAA (site CCCCGTCCTTT)”, the “recombinant UMI read abundance (log10)” value was found to be 0.00894.

Regarding “CCCGAGACATGGACCGGTTTTCCCGGTAATCCGTATTTGTT (site CCCGAGACTAA)”, the “recombinant UMI read abundance (log10)” value turned out to be 0.475.

“CCCGAGCCATGGACCGGTTTTCCCGGTAATCCGTATTTGCC (site CCCAAGCCTGG)”: the “recombinant UMI read abundance (log10)” value worked out at 0.

With “CCCGAGCCATGGACCGGTTTTCCCGGTAATCCGTATTTGCC (site CCCCAGCCTGG)”, the “recombinant UMI read abundance (log10)” value came to 0.

As to “CCCGAGCCATGGACCGGTTTTCCCGGTAATCCGTATTTGCC (site CCCGAGCCTGG)”, the “recombinant UMI read abundance (log10)” value was 0.

For the sequence “CCCGAGCCATGGACCGGTTTTCCCGGTAATCCGTATTTGCC (site CCCTAGCCTGG)”, the “recombinant UMI read abundance (log10)” value is 0.

“CCCGGCCCATGGACCGGTTTTCCCGGTAATCCGTATTTGTT (site CACGGCCCTAA)”: the “recombinant UMI read abundance (log10)” value is 0.00644.

As to “CCCGGCCCATGGACCGGTTTTCCCGGTAATCCGTATTTGTT (site CCCGGCCCTAA)”, the “recombinant UMI read abundance (log10)” value stood at 0.1.

Consider “CCCGGCCCATGGACCGGTTTTCCCGGTAATCCGTATTTGTT (site CGCGGCCCTAA)”, for which the “recombinant UMI read abundance (log10)” value is 0.00519.

Regarding “CCCGGCCCATGGACCGGTTTTCCCGGTAATCCGTATTTGTT (site CTCGGCCCTAA)”, the “recombinant UMI read abundance (log10)” value turned out to be 0.

For the sequence “CCCGGGCCATGGACCGGTTTTCCCGGTAATCCGTATTTGCA (site CCCGGACCTTG)”, the “recombinant UMI read abundance (log10)” value turned out to be 0.

Regarding “CCCGGGCCATGGACCGGTTTTCCCGGTAATCCGTATTTGCA (site CCCGGCCCTTG)”, the “recombinant UMI read abundance (log10)” value was found to be 0.

For the sequence “CCCGGGCCATGGACCGGTTTTCCCGGTAATCCGTATTTGCA (site CCCGGGCCTTG)”, the “recombinant UMI read abundance (log10)” value was 0.

In the case of “CCCGGGCCATGGACCGGTTTTCCCGGTAATCCGTATTTGCA (site CCCGGTCCTTG)”, the “recombinant UMI read abundance (log10)” value stood at 0.

Take “CCCGGGGCATGGACCGGTTTTCCCGGTAATCCGTATTTGCA (site CCCGGGGCTTG)”: the “recombinant UMI read abundance (log10)” value was determined as 1.23.

On to “CCCGGTCCATGGACCGGTTTTCCCGGTAATCCGTATTTGAA (site CCCGGTCCTTA)”, for which the “recombinant UMI read abundance (log10)” value was 0.

Regarding “CCCGGTCCATGGACCGGTTTTCCCGGTAATCCGTATTTGAA (site CCCGGTCCTTC)”, the “recombinant UMI read abundance (log10)” value was determined as 0.00874.

In the case of “CCCGGTCCATGGACCGGTTTTCCCGGTAATCCGTATTTGAA (site CCCGGTCCTTG)”, the “recombinant UMI read abundance (log10)” value came to 0.

Turning to “CCCGGTCCATGGACCGGTTTTCCCGGTAATCCGTATTTGAA (site CCCGGTCCTTT)”, the “recombinant UMI read abundance (log10)” value was 0.00816.

As to “CCCGGTCCATGGACCGGTTTTCCCGGTAATCCGTATTTGCC (site CCCGGTCCTAG)”, the “recombinant UMI read abundance (log10)” value was 0.

“CCCGGTCCATGGACCGGTTTTCCCGGTAATCCGTATTTGCC (site CCCGGTCCTCG)”: the “recombinant UMI read abundance (log10)” value worked out at 0.0293.

With “CCCGGTCCATGGACCGGTTTTCCCGGTAATCCGTATTTGCC (site CCCGGTCCTGG)”, the “recombinant UMI read abundance (log10)” value came to 0.

Consider “CCCGGTCCATGGACCGGTTTTCCCGGTAATCCGTATTTGCC (site CCCGGTCCTTG)”, for which the “recombinant UMI read abundance (log10)” value turned out to be 0.00573.

Consider “CCCGTTCCATGGACCGGTTTTCCCGGTAATCCGTATTTGCA (site CCCGATCCTTG)”, for which the “recombinant UMI read abundance (log10)” value was determined as 0.

As to “CCCGTTCCATGGACCGGTTTTCCCGGTAATCCGTATTTGCA (site CCCGCTCCTTG)”, the “recombinant UMI read abundance (log10)” value came out at 0.

For the sequence “CCCGTTCCATGGACCGGTTTTCCCGGTAATCCGTATTTGCA (site CCCGGTCCTTG)”, the “recombinant UMI read abundance (log10)” value was determined as 0.

For “CCCGTTCCATGGACCGGTTTTCCCGGTAATCCGTATTTGCA (site CCCGTTCCTTG)”, the “recombinant UMI read abundance (log10)” value was 0.

On to “CCCTAACCATGGACCGGTTTTCCCGGTAATCCGTATTTGAA (site CCCTAACCTTT)”, for which the “recombinant UMI read abundance (log10)” value came to 0.0156.

On to “CCCTAACCATGGACCGGTTTTCCCGGTAATCCGTATTTGCC (site CCCTAACCTGG)”, for which the “recombinant UMI read abundance (log10)” value was determined as 0.

For the sequence “CCCTAACCATGGACCGGTTTTCCCGGTAATCCGTATTTGCC (site CCCTACCCTGG)”, the “recombinant UMI read abundance (log10)” value is 0.

As for “CCCTAACCATGGACCGGTTTTCCCGGTAATCCGTATTTGCC (site CCCTAGCCTGG)”, the “recombinant UMI read abundance (log10)” value amounted to 0.

On to “CCCTAACCATGGACCGGTTTTCCCGGTAATCCGTATTTGCC (site CCCTATCCTGG)”, for which the “recombinant UMI read abundance (log10)” value is 0.

For “CCCTACACATGGACCGGTTTTCCCGGTAATCCGTATTTGCT (site CACTACACTAG)”, the “recombinant UMI read abundance (log10)” value is 0.

In the case of “CCCTACACATGGACCGGTTTTCCCGGTAATCCGTATTTGCT (site CCCTACACTAG)”, the “recombinant UMI read abundance (log10)” value came to 1.12.

As for “CCCTACACATGGACCGGTTTTCCCGGTAATCCGTATTTGCT (site CGCTACACTAG)”, the “recombinant UMI read abundance (log10)” value stood at 0.477.

In the case of “CCCTACACATGGACCGGTTTTCCCGGTAATCCGTATTTGCT (site CTCTACACTAG)”, the “recombinant UMI read abundance (log10)” value was 0.347.

Turning to “CCCTAGACATGGACCGGTTTTCCCGGTAATCCGTATTTGCC (site CCCTAGACTGG)”, the “recombinant UMI read abundance (log10)” value turned out to be 1.04.
